Test results: patent publication US12383512B2, “Cannabidiol-type cannabinoid compound” (Jazz Pharmaceuticals Research UK LImited, priority 2019, dated 2025)
Like-named read-outs stand apart in the source and are kept apart here.

Key:
[1] = system: tonic hind limb extensor seizure following corneally delivered electroshock in mice; test: Supramaximal electroshock seizure (MES) test in the mouse; type: in vivo
Method: The MES test is a very stringent model in which mice receive a predetermined high-level electrical stimulus of sufficient intensity to reliably produce tonic hindlimb extensor seizures in 100% of control animals. As such the MES test is a rigorous evaluation of anticonvulsant activity (Swinyard, 1985).
Animals were dosed i.p. according to treatment group. […]
In addition, a dose of 100 mg/kg CBD was given at 10 ml/kg i.p. at 120 minutes pre-treatment time to assess the effect of the drug over a longer time course.
The positive control valproate was used at 250 mg/kg (10 ml/kg i.p. 30 min pre-treatment time).
Induction of seizure is measured as an all-or-nothing effect scored as either present (+) or absent (0) for each animal.
Data was collected by an observer unaware of the treatment for each animal and was expressed as the number of +'s or 0's for each treatment group.
The percentage inhibition of relevant vehicle treated group (the protection relative to vehicle treated controls) was then generated.
Significant differences between individual treatment groups and vehicle-treated groups were assessed using 2-tailed Fisher's Exact Probability test (p<0.05 considered significant).

[2] = system: seizure threshold current for tonic hind limb extensor convulsions in mice; test: Maximal electroshock seizure threshold (MEST) test in the mouse; conditions: for % change from vehicle (CC50) / CC50 ± SEM: MEST test
Method: The efficacy of 6-OH CBD was tested in a mouse model of generalised seizure, the maximal electroshock seizure threshold (MEST) test.
In the MEST test the ability of a drug to alter the seizure threshold current required to induce hind limb tonic extensor convulsions is measured according to an “up and down” method of shock titration (Kimball et al., 1957). An increase in seizure threshold is indicative of anti-convulsant effect.
The ability of a test compound to alter the stimulus intensity, expressed as current (mA), required to induce the presence of tonic hind limb extensor convulsions, is assessed in the MEST.
Naïve mice were acclimatised to the procedure room in their home cages for up to 7 days, with food and water available ad libitum.
All animals were weighed at the beginning of the study and randomly assigned to treatment groups based on a mean distribution of body weight across groups.
The first animal within a treatment group was given a shock at the expected or estimated CC50 current. For subsequent animals, the current was lowered or raised depending on the convulsions outcome from the preceding animal.
Data generated from each treatment group were used to calculate the CC50±SEM values for the treatment group.
Vehicle: (5% ethanol, 5% solutol, 90% Saline) was prepared as follows: 2 mL of ethanol, 2 mL of solutol were warmed to 60° C., in 36 mL of saline (1:1:18).
The test compound, alpha 6-OH CBD was prepared according to the method described in Example 1. 6-OH CBD was administered at 3, 10 and 30 mg/kg (i.p.) in a 1:1:18 ethanol:solutol:0.9% saline formulation.
6-OH CBD effects were also calculated as percentage change in CC50 from the vehicle control group.
Significant difference between drug-treated animals and controls were assessed according to Litchfield and Wilcoxon (1949).

[3] = Plasma and brain pharmacokinetics after single intravenous or intraperitoneal administration to the mouse; type: in vivo; conditions: for Kp: brain/plasma, other: intravenous and intraperitoneal, all IV and IP dose groups
Excerpt: The objective of this study was to determine brain and plasma pharmacokinetic parameters of 6-OH CBD following a single intravenous or intraperitoneal administration of 6-OH CBD to the mouse; and to determine brain: plasma concentration ratios for 6-OH CBD.
Ninety-nine male mice each received a single intravenous or intraperitoneal dose of 6-OH CBD, as detailed below in Table 3.
For each formulation, 6-OH CBD was formulated at the required concentration in ethanol: Kolliphor EL (Cremophor EL): 0.9% (w/v) Saline (1:1:18, v/v/v).
Each animal received a single intravenous administration, via a tail vein, at a nominal dose volume of 2 mL/kg or a single intraperitoneal administration at a nominal dose volume of 5 mL/kg.
Following dosing, terminal blood samples were collected from each animal via cardiac puncture, and brains were excised, at each of the following time points: • Intravenous groups: 7, 15 and 30 minutes, 1, 2, 4, 8, 12 and 24 hours; • Intraperitoneal groups: 15 and 30 minutes, 1, 2, 4, 8, 12 and 24 hours.
Blood was collected into tubes containing lithium heparin anticoagulant and centrifuged to prepare plasma. Brain samples were frozen on dry ice, then weighed and stored deep frozen prior to bioanalysis. The remaining carcasses were discarded. Plasma was stabilised with an equal volume of ascorbic acid solution, then stored deep frozen prior to bioanalysis.
Stabilised plasma samples were analysed to determine the concentrations of 6-OH CBD, using qualified LC-MS/MS methods. The results of these analyses were evaluated to determine non-compartmental pharmacokinetic parameters.
The following parameters were determined: • Cmax Maximum concentration observed. • Tmax Time of maximum observed concentration. • AUC0-t Area under the concentration-time curve from hour 0 to the last quantifiable concentration, estimated by the linear trapezoidal rule. • AUC0-24 Area under the concentration-time curve from hour 0 to hour 24, estimated using the linear trapezoidal rule. • t1/2 Elimination half-life, determined as In(2)/λz. • Cl Clearance, calculated (for intravenous doses only) as Dose/AUC0-inf. • Vss Volume of distribution, based on the terminal elimination phase, calculated (for intravenous doses only) as Cl/λz. • Fabs Absolute bioavailability of the intraperitoneal dose.

[4] = 30 mg/kg i.p., pre-treatment time 60 min
[5] = 3 mg/kg i.p., pre-treatment time 30 min
[6] = 10 mg/kg i.p., pre-treatment time 15 min

Structure (SMILES): C=C(C)[C@@H]1CC(O)C(C)=C[C@H]1c1c(O)cc(CCCCC)cc1O (stereo partly drawn) [6-OH CBD, Alpha 6-hydroxy cannabidiol]
- % change from vehicle ([1]; 3 mg/kg i.p., pre-treatment time 60 min): 0%
- seizure outcome in words ([1]; 3 mg/kg i.p., text says 120 minutes before the test): ineffective
- % change from vehicle [1, 4]: 100%
- seizure outcome in words ([1]; 30 mg/kg i.p., text says 120 minutes before the test): enabled all mice within the group to withstand seizures
- seizure outcome in words ([1]; 100 mg/kg given 120 minutes before): statistically significant reduction of seizures
- % change from vehicle ([1]; 100 mg/kg i.p., pre-treatment time 60 min): 100%
- % change from vehicle ([1]; 100 mg/kg i.p., pre-treatment time 120 min): 100%
- seizure outcome in words ([1]; 100 mg/kg i.p., text says 120 minutes before the test): enabled all mice within the group to withstand seizures
- % change from vehicle ([1]; 200 mg/kg i.p., pre-treatment time 60 min): 100%
- seizure outcome in words ([1]; 200 mg/kg i.p., text says 120 minutes before the test): enabled all mice within the group to withstand seizures
- effect on MEST in words ([2]; 3, 10 and 30 mg/kg i.p.): dose-related increase in MEST
- % change from vehicle (CC50) [2, 5]: 25%
- CC50 ± SEM [2, 5]: 30.0 ± 1.1 mA
- % change from vehicle (CC50) [2, 6]: 135%
- CC50 ± SEM [2, 6]: 56.5 ± 2.1 mA
- % change from vehicle (CC50) [2, 4]: 327%
- CC50 ± SEM [2, 4]: 102.5 ± 2.2 mA
- increase in brain AUC0-24 for a 10-fold increase in dose level ([3]; brain, IP 3 to 30 mg/kg): 32.6 fold
- increase in brain Cmax for a 10-fold increase in dose level ([3]; brain, IP 3 to 30 mg/kg): 15.8 fold
- Cmax ([3]; male, brain, IP 3 mg/kg): 851 ng/mL
- Cmax ([3]; male, brain, IP 10 mg/kg): 3680 ng/mL
- Cmax ([3]; male, brain, IP 30 mg/kg): 13500 ng/mL
- Cmax ([3]; male, brain, IV 1 mg/kg): 1580 ng/mL
- AUC(0-t) ([3]; male, brain, ip, 3 mg/kg, brain, IP 3 mg/kg, read-out: AUC0-24): 768 ng·h/mL
- AUC(0-t) ([3]; male, brain, ip, 3 mg/kg, brain, IP 3 mg/kg, read-out: AUC0-t): 756 ng·h/mL
- Tmax ([3]; male, brain, ip, 3 mg/kg, brain, IP 3 mg/kg, read-out: Tmax (converted)): 30 min
- half-life ([3]; male, brain, ip, 3 mg/kg, brain, IP 3 mg/kg, read-out: t1/2 (converted)): 34.1 min
- AUC(0-t) ([3]; male, brain, ip, 10 mg/kg, brain, IP 10 mg/kg, read-out: AUC0-24): 3940 ng·h/mL
- AUC(0-t) ([3]; male, brain, ip, 10 mg/kg, brain, IP 10 mg/kg, read-out: AUC0-t): 3750 ng·h/mL
- Tmax ([3]; male, brain, ip, 10 mg/kg, brain, IP 10 mg/kg, read-out: Tmax (converted)): 15 min
- half-life ([3]; male, brain, ip, 10 mg/kg, brain, IP 10 mg/kg, read-out: t1/2 (converted)): 42.4 min
- AUC(0-t) ([3]; male, brain, ip, 30 mg/kg, brain, IP 30 mg/kg, read-out: AUC0-24): 25000 ng·h/mL
- AUC(0-t) ([3]; male, brain, ip, 30 mg/kg, brain, IP 30 mg/kg, read-out: AUC0-t): 25000 ng·h/mL
- Tmax ([3]; male, brain, ip, 30 mg/kg, brain, IP 30 mg/kg, read-out: Tmax (converted)): 60 min
- half-life ([3]; male, brain, ip, 30 mg/kg, brain, IP 30 mg/kg, read-out: t1/2 (converted)): 55.1 min
- half-life ([3]; male, brain, ip, brain, IP administration 3-30 mg/kg, read-out: t1/2 range): 34.1 to 55.1 min
- Tmax ([3]; male, brain, ip, brain, after IP dosing (3-30 mg/kg), read-out: Tmax range): 15 to 60 min
- AUC(0-t) ([3]; male, brain, iv, 1 mg/kg, brain, IV 1 mg/kg, read-out: AUC0-24): 690 ng·h/mL
- AUC(0-t) ([3]; male, brain, iv, 1 mg/kg, brain, IV 1 mg/kg, read-out: AUC0-t): 679 ng·h/mL
- Tmax ([3]; male, brain, iv, 1 mg/kg, brain, IV 1 mg/kg, read-out: Tmax (converted)): 7.02 min
- half-life ([3]; male, brain, iv, 1 mg/kg, brain, IV 1 mg/kg, read-out: t1/2 (converted)): 18.7 min
- Kp ([3]; male, read-out: Brain: plasma ratio for AUC0-24, range): 1.41 to 2.01
- Kp ([3]; male, read-out: Brain: plasma ratio for Cmax, range): 1.23 to 2.03
- Cmax ([3]; male, plasma, IP 3 mg/kg): 658 ng/mL
- Cmax ([3]; male, plasma, IP 10 mg/kg): 2550 ng/mL
- Cmax ([3]; male, plasma, IP 30 mg/kg): 11000 ng/mL
- Cmax ([3]; male, plasma, IV 1 mg/kg): 775 ng/mL
- clearance ([3]; male, plasma, IV 1 mg/kg): 48.7 mL/min/kg
- Vd ([3]; male, plasma, IV 1 mg/kg, read-out: Vss): 1.9 L/kg
- AUC(0-t) ([3]; male, plasma, ip, 3 mg/kg, plasma, IP 3 mg/kg, read-out: AUC0-24): 535 ng·h/mL
- AUC(0-t) ([3]; male, plasma, ip, 3 mg/kg, plasma, IP 3 mg/kg, read-out: AUC0-t): 533 ng·h/mL
- Tmax ([3]; male, plasma, ip, 3 mg/kg, plasma, IP 3 mg/kg, read-out: Tmax (converted)): 15 min
- half-life ([3]; male, plasma, ip, 3 mg/kg, plasma, IP 3 mg/kg, read-out: t1/2 (converted)): 59.6 min
- AUC(0-t) ([3]; male, plasma, ip, 10 mg/kg, plasma, IP 10 mg/kg, read-out: AUC0-24): 2600 ng·h/mL
- AUC(0-t) ([3]; male, plasma, ip, 10 mg/kg, plasma, IP 10 mg/kg, read-out: AUC0-t): 2590 ng·h/mL
- Tmax ([3]; male, plasma, ip, 10 mg/kg, plasma, IP 10 mg/kg, read-out: Tmax (converted)): 15 min
- half-life ([3]; male, plasma, ip, 10 mg/kg, plasma, IP 10 mg/kg, read-out: t1/2 (converted)): 64.8 min
- AUC(0-t) ([3]; male, plasma, ip, 30 mg/kg, plasma, IP 30 mg/kg, read-out: AUC0-24): 17700 ng·h/mL
- AUC(0-t) ([3]; male, plasma, ip, 30 mg/kg, plasma, IP 30 mg/kg, read-out: AUC0-t): 17700 ng·h/mL
- Tmax ([3]; male, plasma, ip, 30 mg/kg, plasma, IP 30 mg/kg, read-out: Tmax (converted)): 15 min
- half-life ([3]; male, plasma, ip, 30 mg/kg, plasma, IP 30 mg/kg, read-out: t1/2 (converted)): 57.5 min
- Tmax ([3]; male, plasma, ip, 30 mg/kg, plasma, IP 3, 10 or 30 mg/kg (each dose level), read-out: Tmax (converted)): 15 min
- half-life ([3]; male, plasma, ip, 30 mg/kg, plasma, IP 3, 10 or 30 mg/kg, read-out: t1/2 range across dose levels): 59.6 to 64.8 min
- AUC(0-t) ([3]; male, plasma, iv, 1 mg/kg, plasma, IV 1 mg/kg, read-out: AUC0-24): 343 ng·h/mL
- AUC(0-t) ([3]; male, plasma, iv, 1 mg/kg, plasma, IV 1 mg/kg, read-out: AUC0-t): 342 ng·h/mL
- Tmax ([3]; male, plasma, iv, 1 mg/kg, plasma, IV 1 mg/kg, read-out: Tmax (converted)): 7.02 min
- half-life ([3]; male, plasma, iv, 1 mg/kg, plasma, IV 1 mg/kg, read-out: t1/2 (converted)): 27.1 min
- Fabs ([3]; plasma, IP 3 mg/kg): 52.1%
- Fabs ([3]; plasma, IP 10 mg/kg): 75.8%
- Fabs ([3]; plasma, IP 30 mg/kg): 173%
- increase in plasma AUC0-24 for a 10-fold increase in dose level ([3]; plasma, IP 3 to 30 mg/kg): 33.2 fold
- increase in plasma Cmax for a 10-fold increase in dose level ([3]; plasma, IP 3 to 30 mg/kg): 16.7 fold

Structure (SMILES): CN1C(=O)CN=C(c2ccccc2)c2cc(Cl)ccc21 [Diazepam, diazepam, reference compound]
- % change from vehicle (CC50) ([2]; 2.5 mg/kg i.p., pre-treatment time 30 min): 103%

Structure (SMILES): CCCC(CCC)C(=O)O [Valproate, valproate, reference compound]
- % change from vehicle ([1]; 250 mg/kg i.p., pre-treatment time 30 min): 100%
